Patent US6730670B2, “7-phenyl-benzo[b]thiophen amide derivatives” (Hoffmann-La Roche Inc., priority 2001, dated 2004)

Molecular target: T1, human adenosine A2A receptor (Homo sapiens, UniProt P29274)
T1 construct: expressed in transfected cells; host or cells: CHO cells, Semliki Forest virus expression system; washed membrane preparation
Experiment: [3H]-SCH-58261 binding assay, human adenosine A2A receptor (CHO cell membranes, SPA)
Settings: [3H]-SCH-58261 1 nM; membranes of CHO cells expressing human A2A receptor; Ki from IC50 by Cheng-Prussoff equation; read-out: hA2 (pKi) (converted)
Description: Human Adenosine A2A Receptor
The human adenosine A2A receptor was recombinantly expressed in chinese hamster ovary (CHO) cells using the semliki forest virus expression system. Cells were harvested, washed twice by centrifugation, homogenized and again washed by centrifugation. The final washed membrane pellet was suspended in a Tris (50 mM) buffer containing 120 mM NaCl, 5 mM KCl, 2 mM CaCl2 and 10 mM MgCl2 (pH 7.4) (buffer A). The [^3H]-SCH-58261 (Dionisotti et al., 1997, Br J Pharmacol 121, 353; 1 nM) binding assay was carried out in 96-well plates in the presence of 2.5 μg of membrane protein, 0.5 mg of Ysi-poly-1-lysine SPA beads and 0.1 U adenosine deaminase in a final volume of 200 μl of buffer A. Non-specific binding was defined using xanthine amine congener (XAC; 2 μM). Compounds were tested at 10 concentrations from 10 μM-0.3 nM. All assays were conducted in duplicate and repeated at least two times. Assay plates were incubated for 1 hour at room temperature before centricentrifugation and then bound ligand determined of test compound using a Packard Topcount scintillation counter. IC50 values, the concentration where 50% of the […] binding is displaced, were calculated using a non-linear curve fitting program and Ki values calculated using the Cheng-Prussoff equation.
Preferred compounds of formula I have a pKi>6.4.

T1 sequence (P29274 whole entry): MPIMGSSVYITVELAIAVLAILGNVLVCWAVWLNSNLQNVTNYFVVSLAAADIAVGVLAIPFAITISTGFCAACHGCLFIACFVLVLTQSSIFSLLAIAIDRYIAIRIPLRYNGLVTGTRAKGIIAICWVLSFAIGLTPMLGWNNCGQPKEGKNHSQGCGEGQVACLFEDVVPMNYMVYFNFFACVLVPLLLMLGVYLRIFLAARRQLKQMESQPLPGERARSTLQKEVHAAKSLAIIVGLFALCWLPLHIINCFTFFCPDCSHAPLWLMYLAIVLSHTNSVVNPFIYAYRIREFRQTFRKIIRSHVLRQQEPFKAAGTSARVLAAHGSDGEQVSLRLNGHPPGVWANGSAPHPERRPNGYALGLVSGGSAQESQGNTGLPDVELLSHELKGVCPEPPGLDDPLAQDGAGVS

Row | Structure (SMILES) | Ki [nM]
1 | COc1ccc(-c2ccccc2)c2sc(NC(=O)N3CCSCC3)cc12 [Example 1, Thiomorpholine-4-carboxylic acid (4-methoxy-7-phenyl-benzo[b]thiophen-2-yl)-amide] | 155
2 | COc1ccc(-c2ccccc2)c2sc(NC(=O)N3CCOCC3)cc12 [Example 2, Morpholine-4-carboxylic acid (4-methoxy-7-phenyl-benzo[b]thiophen-2-yl)-amide] | 263
3 | COc1ccc(-c2ccccc2)c2sc(NC(=O)N3CCCCC3)cc12 [Example 3, Piperidine-1-carboxylic acid (4-methoxy-7-phenyl-benzo[b]thiophen-2-yl)-amide] | 257
4 | COc1ccc(-c2ccccc2)c2sc(NC(=O)N3CCC(O)CC3)cc12 [Example 4, 4-Hydroxy-piperidine-1-carboxylic acid (4-methoxy-7-phenyl-benzo[b]thiophen-2-yl)-amide] | 126
5 | COc1ccc(-c2ccccc2)c2sc(NC(=O)N3CCC(OC)CC3)cc12 [Example 5, 4-Methoxy-piperidine-1-carboxylic acid (4-methoxy-7-phenyl-benzo[b]thiophen-2-yl)-amide] | 347
6 | COc1ccc(-c2ccccc2)c2sc(NC(=O)N3CCC(CO)CC3)cc12 [Example 6, 4-Hydroxymethyl-piperidine-1-carboxylic acid (4-methoxy-7-phenyl-benzo[b]thiophen-2-yl)-amide] | 97.7

More lines, now with the values ahead:

Row | Ki [nM] | Structure (SMILES)
7 | 240 | COc1ccc(-c2ccccc2)c2sc(NC(=O)N3CCN(C)CC3)cc12 [Example 7, 4-Methyl-piperazine-1-carboxylic acid (4-methoxy-7-phenyl-benzo[b]thiophen-2-yl)-amide]
8 | 302 | COc1ccc(-c2ccccc2)c2sc(NC(=O)c3ccc(C)nc3)cc12 [Example 8, N-(4-Methoxy-7-phenyl-benzo[b]thiophen-2-yl)-6-methyl-nicotinamide]
9 | 389 | COc1ccc(-c2ccccc2)c2sc(NC(=O)c3ccnc(C)c3)cc12 [Example 9, N-(4-Methoxy-7-phenyl-benzo[b]thiophen-2-yl)-2-methyl-isonicotinamide]
10 | 43.7 | COc1ccc(-c2ccccc2)c2sc(NC(=O)c3ccc(F)cc3)cc12 [Example 10, 4-Fluoro-N-(4-methoxy-7-phenyl-benzo[b]thiophen-2-yl)-benzamide]
